# According to patent US6124310A, “Enediyne compounds” (priority 1995, dated 2000):
# Tests used:
# UV4 cells = experiment: Growth inhibition of UV4 cells, 18 hours in 96-well plates under aerobic conditions, without or with purified E. coli nitroreductase and NADH; type: cell-based; settings: for IC50: Cricetulus griseus, UV4, 18 h, 18 hours, aerobic
# Method: The compound prepared in Example 1 was activated by the aerobic nitroreductase from E. coli, by being incubated with UV4 cells for 18 hours in 96-well plates under aerobic conditions.
# tumour cell cultures = settings: naturally-occurring enediyne antibiotics, literature; cited from earlier work
compound,measurement,setting,value
"O=C(OCc1ccc([N+](=O)[O-])cc1)N1c2ccccc2C23OC24CCCC3C#C/C=C\C#CC14 (racemic) [compound 2, (6R,6aR,10R,10aS,14Z)-(±)-(4-nitrophenyl)methyl 7,8,9,10-tetrahydro-6a,10a-epoxy-6, [3]-hexene[1,5]diynophenanthridine-5(6H)-carboxylate]",IC50,UV4 cells; compound alone,18.1 µM
same,IC50,"UV4 cells; together with purified E. coli nitroreductase enzyme (1 μg/mL) and NADH (1 mM, as cofactor)",0.19 µM
same,fold activation by the enzyme,"UV4 cells; ratio of IC50 without / with E. coli nitroreductase + NADH, 1080 min",115 fold
O=C(Oc1ccccc1)N1c2ccccc2C23OC24CCCC3C#C/C=C\C#CC14 (stereo not shown) [formula A'],showed any activation by the enzyme,"UV4 cells; E. coli nitroreductase, in words: 'neither ... showed any activation'",neither
calicheamicin,IC50 values for inhibition of growth of tumour cell cultures,tumour cell cultures,low pM range
dynemicin,IC50 values for inhibition of growth of tumour cell cultures,tumour cell cultures,low pM range
esperamicin,IC50 values for inhibition of growth of tumour cell cultures,tumour cell cultures,low pM range
